{"source": "patent US6930104B2", "about": "“Heterocyclic derivatives” (Takeda Chemical Industries, Ltd., priority 2001, dated 2005)", "key": {"PC12h cells": {"system": "PC12h cells", "assay": "Inhibitory effects on glutamate-induced cell death (LDH activity of living cells)", "assay_type": "cell-based, rat", "settings": "concentration of 1 μM, 72 hours", "protocol": "(§1) PC12h cells, a subspecies of rat-derived pheochromocytoma PC12 cells, were provided by the late Professor Hiroshi Hatanaka (Osaka University, Japan). Dulbecco's modified Eagle's medium (DMEM), phosphate buffered saline (PBS), HEPES (N-2-hydroxyethylpiperazine-N′-2-ethanesulfonic acid) buffer (pH 7.4), horse serum (HS) and a penicillin (5000 U/ml)/streptomycin (5 mg/ml) mixture were purchased from Gibco BRL. Fetal calf serum (FCS) was purchased from Bioscience PTY. Transferrin, insulin and progesterone were purchased from Sigma. The flasks used for culture were manufactured by Falcon, and the collagen-coated 96-well and 6-well multiwell plates used for assay were manufactured by Iwaki Glass Co., Ltd. (Japan). An LDH assay kit (LDH cytotoxic test Wako) and an anti-βAPP antibody 22C11 were purchased from Wako Pure Chemical Industries, Ltd. (Japan) and Chemicon, respectively. All other chemicals used were commercially available and of reagent grade.\nPC12h cells were seeded in 96-well plates at a density of 2×10^4 cells/cm^2. […] After 72 hours, living cells were counted. Cell counts were determined as follows: after removal of the culture medium, living cells were solubilized in 0.1% Tween 20-containing PBS and assayed for LDH activity. The results were expressed as % of control, whose LDH activity was set to 100."}, "[1]": {"system": "sAPP secretion in PC12h cells", "assay": "Stimulatory effects on sAPP secretion (Western blotting of culture supernatant)", "assay_type": "cell-based, rat", "settings": "5 hours after addition; for increase in sAPP production compared to the control group: averaged from triplicate wells", "protocol": "as §1\nPC12h cells were grown in DMEM culture medium supplemented with 10% FCS, 5% HS and penicillin/streptomycin, and then released by pipetting. The cells were seeded in collagen-coated 6-well plates at a confluency of 50% to 70% and allowed to stand for 1 day. On the following day, the wells were washed once with 10 mM HEPES/DMEM (1 ml) and then filled with 10 mM HEPES/DMEM culture medium (0.5 ml), followed by addition of Example No. 5 or 32. After 5 hours, the culture supernatant was collected from each well. Trichloroacetic acid (final concentration: 15%) was added to the culture supernatant to precipitate proteins, which were then concentrated. After addition of SDS-PAGE sample buffer (Daiichi Pure Chemicals Co., Ltd., Japan), each sample was boiled for 5 minutes, subjected to SDS-PAGE (10/20% gel, ATTO) and then transferred to a PVDF membrane (Bio-Rad Laboratories) at 2 mA/cm^2 for 60 minutes. […] An ECL Plus (Amersham) was used for detection and the signals were digitized by an LAS-1000 plus (Fuji film, Japan), followed by quantification with NIH-image software."}}, "data": [{"molecule": "COc1ccc(C(=O)N2c3ccccc3C(N3CCCc4ccccc43)CC2C)cc1OC", "note": "(single isomer, unassigned; (-)) [Example 5, (−)-2,4-cis-1-(3,4-Dimethoxybenzoyl)-2-methyl-4-(1,2,3,4-tetrahydroquinolin-1-yl)-1,2,3,4-tetrahydroquinoline]", "values": [{"measurement": "inhibition of cell death induced by addition of 1 mM glutamic acid", "setting": "PC12h cells", "result": "completely inhibited"}, {"measurement": "increase in sAPP production compared to the control group", "setting": "[1]; 10 nM concentration", "result": "approximately 2.0 fold"}, {"measurement": "sAPP level in the culture medium as compared to the control group", "setting": "[1]; Western blotting with anti-βAPP antibody 22C11", "result": "concentration-dependent increase"}]}, {"molecule": "COc1ccc(C(=O)N2c3ccccc3C(n3c4ccccc4c4ccccc43)CC2C)cc1OC", "note": "(stereo not drawn) [Example 32, 2,4-cis-4-(9H-9-Carbazolyl)-1-(3,4-dimethoxybenzoyl)-2-methyl-1,2,3,4-tetrahydroquinoline]", "values": [{"measurement": "increase in sAPP production compared to the control group", "setting": "[1]; 1 nM concentration", "result": "approximately 2.2 fold"}]}, {"molecule": "CCOC(=O)CCCCC1CC(n2c3ccccc3c3ccccc32)c2ccccc2N1C(=O)c1ccc(OC)cc1", "note": "(stereo not shown) [Example 157, Ethyl 5-[4-(9H-9-carbazolyl)-1-(4-methoxybenzoyl)-1,2,3,4-tetrahydro-2-quinolinyl]pentanoate]", "values": [{"measurement": "melting point", "result": "167 to 168", "unit": "°C"}]}, {"molecule": "COc1ccc(C(=O)N2c3ccccc3C(N3CCCc4c(Cl)cccc43)=CC2C)cc1OC", "note": "(stereo not shown) [Example 160, 4-(5-Chloro-1,2,3,4-tetrahydroquinolin-1-yl)-1-(3,4-dimethoxybenzoyl)-2-methyl-1,2-dihydroquinoline]", "values": [{"measurement": "melting point", "result": "162 to 163", "unit": "°C"}]}, {"molecule": "COc1ccc(C(=O)N2c3ccccc3C(n3c4ccccc4c4ccccc43)=CC2C)cc1OC", "note": "(stereo not shown) [Example 161, 4-(9H-9-Carbazolyl)-1-(3,4-dimethoxybenzoyl)-2-methyl-1,2-dihydroquinoline]", "values": [{"measurement": "melting point", "result": "184 to 185", "unit": "°C"}]}]}
